{"source": "patent EP0252983B1", "about": "“SALTS OF N-(VINYLOXIETHYL)DITHIOCARBAMIC ACID, METHOD OF OBTAINING THEREOF AND […] ON THEM” (priority 1985, dated 1987)", "key": {"[1]": {"test_system": "Botrytis cinerea", "assay": "Mycelial growth inhibition on agar (contact activity)", "format": "cell-based", "conditions": "120 h, Kartoffel-Glukose-Nährmedium, read-out: Myzelhemmung in %", "summary_of_the_method": "(§1)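 Compound dissolved in water and mixed into potato-glucose agar poured into dishes. Mycelium stab-inoculated after 24 h, then incubated 5 days at 24–26 °C. Colony diameters measured on day 5, and % mycelial growth inhibition calculated by Abbott's formula.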"}, "[2]": {"test_system": "Fusarium moniliforme", "assay": "Mycelial growth inhibition on agar (contact activity)", "format": "cell-based", "conditions": "Fusarium verticillioides, 120 h, Kartoffel-Glukose-Nährmedium, read-out: Myzelhemmung in %"}, "[3]": {"test_system": "Fusarium sambucinum", "assay": "Mycelial growth inhibition on agar (contact activity)", "format": "cell-based", "conditions": "Fusarium sambucinum, 120 h, Kartoffel-Glukose-Nährmedium, read-out: Myzelhemmung in %"}, "[4]": {"test_system": "Venturia inaegualis", "assay": "Mycelial growth inhibition on agar (contact activity)", "format": "cell-based", "conditions": "120 h, Kartoffel-Glukose-Nährmedium, read-out: Myzelhemmung in %", "summary_of_the_method": "as §1"}, "[5]": {"test_system": "Verticillium dahliae", "assay": "Mycelial growth inhibition on agar (contact activity)", "format": "cell-based", "conditions": "120 h, Kartoffel-Glukose-Nährmedium, read-out: Myzelhemmung in %", "summary_of_the_method": "as §1"}, "[6]": {"test_system": "Aspergillus niger", "assay": "Mycelial growth inhibition on agar (contact activity)", "format": "cell-based", "conditions": "Aspergillus niger, 120 h; for inhibition of growth at 0.003 %: Wirkstoffkonzentration 0,003 %"}, "[7]": {"test_system": "Chaetomium globosum", "assay": "Mycelial growth inhibition on agar (contact activity)", "format": "cell-based", "description": "(§2) Die Prüfungen werden nach dem Verfahren zur Ermittlung der Kontaktaktivität durchgeführt. Man verwendet das in Wasser gelöste Kalium-N-(vinyloxyäthyl)dithiocarbamat, führt es in ein Nährmedium ein und vergießt auf Petri-Schalen. Nach 24 Stunden wird mit Pilzmyzelium nach einem Stichverfahren geimpft. Dann temperiert man die Schalen innerhalb von 5 Tagen bei einer zwischen 24 und 26 °C liegenden Temperatur und mißt den Durchmesser von Pilzkolonien, ermittelt den Prozentsatz der Hemmung des Myzelwachstums (S) ausgehend von Angaben am 5. Tag nach der Abbott-Formel [drawing 13] worin dc für den Durchmesser der Pilzkolonien, de für den Durchmesser von Pilzkolonien in der Schale stehen, wo ein die zu prüfenden Stoffe enthaltendes Medium vorhanden ist. Dieses Verfahren zur Ermittlung der mikrobiologischen Aktivität ist in anderen Beispielen verwendet."}, "[8]": {"test_system": "Paecilomyces varioti", "assay": "Mycelial growth inhibition on agar (contact activity)", "format": "cell-based", "conditions": "Paecilomyces, 120 h; Wirkstoffkonzentration 0,003 %; Tabelle 3; read-out: Mycelhemmung, in %", "description": "as §2"}, "[9]": {"test_system": "Penicillium funiculosum", "assay": "Mycelial growth inhibition on agar (contact activity)", "format": "cell-based", "description": "as §2"}, "[10]": {"test_system": "Stereum hirsutum", "assay": "Mycelial growth inhibition on agar (contact activity)", "format": "cell-based", "conditions": "Stereum hirsutum, 120 h; Wirkstoffkonzentration 0,003 %; Tabelle 3; read-out: Mycelhemmung, in %", "description": "as §2"}, "[11]": {"test_system": "Fusarium oxysporum", "assay": "Soil fungicide test (fungal discs in treated soil)", "format": "cell-based", "parameters": "key: Das Vorhandensein (+); das Fehlen (-) des wachsenden Myzels um die Scheibe herum", "conditions": "160 mg/kg Boden", "description": "(§3) Eine 50 g schwere Bodenprobe bringt man in ein Glasgefäß ein, sterilisiert innerhalb von 2 Stunden unter einem Druck von 2 atm, gibt dann dem Boden das Präparat als wäßrige Lösung ausgehend von 160 mg/kg zu, wonach in den Boden Scheiben mit Kulturen folgender Pilze Fusarium oxysporum, Verticillium dahliae, Rhizoctonia solani, Pythium ultimum untergebracht werden.\n(§4) Nach 24 und 48 Stunden werden die Scheiben in fließendem Wasser, dann in sterilem Wasser gewaschen, auf sterilem Filterpapier getrocknet und auf eine reine Agarplatte gelegt. Das Vorhandensein (+) oder das Fehlen (-) des wachsenden Myzels um die Scheibe herum wies auf die Wirksamkeit des Präparats. Als Vergleichsmuster diente dabei Karbathion. Die Prüfergebnisse sind in der Tabelle 5 dargestellt."}, "[12]": {"test_system": "Pythium ultimum", "assay": "Soil fungicide test (fungal discs in treated soil)", "format": "cell-based", "parameters": "key: Das Vorhandensein (+); das Fehlen (-) des wachsenden Myzels um die Scheibe herum", "conditions": "160 mg/kg Boden", "description": "as §3, §4"}, "[13]": {"test_system": "Rhizoctonia solani", "assay": "Soil fungicide test (fungal discs in treated soil)", "format": "cell-based", "parameters": "key: Das Vorhandensein (+); das Fehlen (-) des wachsenden Myzels um die Scheibe herum", "conditions": "160 mg/kg Boden", "description": "as §3, §4"}, "[14]": {"test_system": "Verticillium dahliae", "assay": "Soil fungicide test (fungal discs in treated soil)", "format": "cell-based", "parameters": "key: Das Vorhandensein (+); das Fehlen (-) des wachsenden Myzels um die Scheibe herum", "conditions": "160 mg/kg Boden", "description": "as §3, §4"}, "[15]": {"test_system": "Bacillus", "assay": "Bactericidal activity on agar (concentration of complete growth inhibition)", "format": "cell-based", "conditions": "% bezogen auf den Wirkstoff; am 5. Tag; listed as Kaliumsalz", "description": "(§5) Geprüft wird die bakterizide Aktivität von Kalium-, Natrium-, Zink- und Kupfersalzen der N-(Vinyloxyäthyl)dithiocarbamidsäure gegen Bakterien der Gattungen Bacillus, Micrococcus, Pseudomonas, Escherichia und Xantomonas.\n(§6) Man stellt wäßrige Stofflösungen verschiedener Konzentration her, die so berechnet werden, daß die Stoffkonzentration in der Petri-Schale bei der Gabe von 1 ml Lösung in das geschmolzene Nährmedium (45 bis 50 °C) zwischen 0,003 und 25 % (bezogen auf den Wirkstoff) schwankt. Nach 18 bis 24 Stunden bringt man auf die Oberfläche des Nährmediums 0,1 ml wäßrige Suspension eintägiger reiner Kulturen von Bakterien auf und verteilt sie gleichmäßig. In Kontrollschalen verteilt sich 0,1 ml Wasser über die Oberfläche des Nährmediums. Die Inkubation erfolgt bei 37 °C innerhalb von 5 Tagen. Die Wirksamkeit der Stoffe wird nach dem Auftreten des Bakterienwachstums auf der Oberfläche des Nährmediums eingeschätzt. Die Prüfergebnisse sind in der Tabelle 13 dargestellt."}, "[16]": {"test_system": "Escherichia", "assay": "Bactericidal activity on agar (concentration of complete growth inhibition)", "format": "cell-based", "conditions": "% bezogen auf den Wirkstoff; am 5. Tag; listed as Kaliumsalz", "description": "as §5, §6"}, "[17]": {"test_system": "Micrococcus", "assay": "Bactericidal activity on agar (concentration of complete growth inhibition)", "format": "cell-based", "conditions": "% bezogen auf den Wirkstoff; am 5. Tag; listed as Kaliumsalz", "description": "as §5, §6"}, "[18]": {"test_system": "Pseudomonas", "assay": "Bactericidal activity on agar (concentration of complete growth inhibition)", "format": "cell-based", "conditions": "% bezogen auf den Wirkstoff; am 5. Tag; listed as Kaliumsalz", "description": "as §5, §6"}, "[19]": {"assay": "Acute toxicity (LD50) in mice", "format": "in vivo, weißen Mäusen", "conditions": "mouse, in vivo, po; perorale Applikation an weißen Mäusen; read-out: LD50"}, "[20]": {"test_system": "Acremonium cowum", "assay": "Mycelial growth inhibition on agar (contact activity)", "format": "cell-based", "conditions": "120 h, Würzeagar, read-out: Myzelhemmung in %"}, "[21]": {"test_system": "Acremonium charticola", "assay": "Mycelial growth inhibition on agar (contact activity)", "format": "cell-based", "conditions": "Acremonium charticola, 120 h; Präparatkonzentration 0,0015 %; Würzeagar; read-out: Myzelhemmung in %"}}, "note": "Where two headings read alike, the source gives them in different places.", "data": [{"smiles": "C=COCCNC(=S)S", "note": "[Kalium-N-(vinyloxyäthyl)dithiocarbamat]", "values": [{"measurement": "inhibition of growth at 0.01 %", "setting": "[1]; Wirkstoffkonzentration 0,01 %", "result": 100, "unit": "%"}, {"measurement": "inhibition of growth at 0.003 %", "setting": "[1]; Wirkstoffkonzentration 0,003 %", "result": 100, "unit": "%"}, {"measurement": "inhibition of growth at 0.01 %", "setting": "[2]; Wirkstoffkonzentration 0,01 %", "result": 100, "unit": "%"}, {"measurement": "inhibition of growth at 0.003 %", "setting": "[2]; Wirkstoffkonzentration 0,003 %", "result": 100, "unit": "%"}, {"measurement": "inhibition of growth at 0.01 %", "setting": "[3]; Wirkstoffkonzentration 0,01 %", "result": 100, "unit": "%"}, {"measurement": "inhibition of growth at 0.003 %", "setting": "[3]; Wirkstoffkonzentration 0,003 %", "result": 100, "unit": "%"}, {"measurement": "inhibition of growth at 0.01 %", "setting": "[4]; Wirkstoffkonzentration 0,01 %", "result": 100, "unit": "%"}, {"measurement": "inhibition of growth at 0.003 %", "setting": "[4]; Wirkstoffkonzentration 0,003 %", "result": 100, "unit": "%"}, {"measurement": "inhibition of growth at 0.01 %", "setting": "[5]; Wirkstoffkonzentration 0,01 %", "result": 100, "unit": "%"}, {"measurement": "inhibition of growth at 0.003 %", "setting": "[5]; Wirkstoffkonzentration 0,003 %", "result": 100, "unit": "%"}, {"measurement": "inhibition of growth at 0.01 %", "setting": "[6]; Wirkstoffkonzentration 0,01 %, Kartoffel-Glukose-Nährmedium, read-out: Myzelhemmung in %", "result": 100, "unit": "%"}, {"measurement": "inhibition of growth at 0.003 %", "setting": "[6]; Kartoffel-Glukose-Nährmedium, read-out: Myzelhemmung in %", "result": 100, "unit": "%"}, {"measurement": "inhibition of growth at 0.003 %", "setting": "[6]; Tabelle 3, read-out: Mycelhemmung, in %", "result": 100, "unit": "%"}, {"measurement": "inhibition of growth at 0.003 %", "setting": "[7]; Chaetomium globosum, 120 h, Wirkstoffkonzentration 0,003 %, Tabelle 3, read-out: Mycelhemmung, in %", "result": 100, "unit": "%"}, {"measurement": "Aktivität übersteigt Polykarbazin (Vergleichsmuster)", "setting": "[7]; gegen das Myzelium der Pilze Chaetomium globosum", "result": 10, "unit": "%"}, {"measurement": "inhibition of growth at 0.003 %", "setting": "[8]", "result": 100, "unit": "%"}, {"measurement": "inhibition of growth at 0.003 %", "setting": "[9]; Talaromyces funiculosus, 120 h, Wirkstoffkonzentration 0,003 %, Tabelle 3, read-out: Mycelhemmung, in %", "result": 100, "unit": "%"}, {"measurement": "Aktivität übersteigt Salizylanilid (Vergleichsmuster)", "setting": "[9]; gegen Myzelium von Penicillium funiculosum", "result": 10, "unit": "%"}, {"measurement": "inhibition of growth at 0.003 %", "setting": "[10]", "result": 100, "unit": "%"}, {"measurement": "wachsendes Myzel um die Scheibe", "setting": "[11]; Haltedauer 24 Stunden", "result": "-"}, {"measurement": "wachsendes Myzel um die Scheibe", "setting": "[11]; Haltedauer 48 Stunden", "result": "-"}, {"measurement": "wachsendes Myzel um die Scheibe", "setting": "[12]; Haltedauer 24 Stunden", "result": "-"}, {"measurement": "wachsendes Myzel um die Scheibe", "setting": "[12]; Haltedauer 48 Stunden", "result": "-"}, {"measurement": "wachsendes Myzel um die Scheibe", "setting": "[13]; Haltedauer 24 Stunden", "result": "-"}, {"measurement": "wachsendes Myzel um die Scheibe", "setting": "[13]; Haltedauer 48 Stunden", "result": "-"}, {"measurement": "wachsendes Myzel um die Scheibe", "setting": "[14]; Haltedauer 24 Stunden", "result": "-"}, {"measurement": "wachsendes Myzel um die Scheibe", "setting": "[14]; Haltedauer 48 Stunden", "result": "-"}, {"measurement": "Konzentrationen, welche das Bakterienwachstum völlig (100 %) hemmen", "setting": "[15]", "result": "0,05%"}, {"measurement": "Konzentrationen, welche das Bakterienwachstum völlig (100 %) hemmen", "setting": "[16]", "result": "0,05%"}, {"measurement": "Konzentrationen, welche das Bakterienwachstum völlig (100 %) hemmen", "setting": "[17]", "result": "0,05%"}, {"measurement": "Konzentrationen, welche das Bakterienwachstum völlig (100 %) hemmen", "setting": "[18]", "result": "0,05%"}, {"measurement": "LD50", "setting": "[19]", "result": "1400 ± 350", "unit": "mg/kg"}, {"measurement": "inhibition of growth at 0.003 %", "setting": "[20]; Präparatkonzentration 0,003 %", "result": 100, "unit": "%"}, {"measurement": "inhibition of growth at 0.006 %", "setting": "[20]; Präparatkonzentration 0,006 %", "result": 100, "unit": "%"}, {"measurement": "inhibition of growth at 0.0015 %", "setting": "[21]", "result": 100, "unit": "%"}]}]}
